Data from patent US4008233A (priority 1972, dated 1977).
Read-outs that look alike come from different tables or passages of the source.

Assays:
[1] = design: species or system male mice; details: mouse, in vivo
[2] = design: species or system male white mice; details: mouse, in vivo
[3] = design: species or system male rats (SIV; printed "rate"); details: rat, in vivo
in vivo = details: mouse
[4] = design: species or system male mice (NMRI); details: in vivo
[5] = design: species or system mice and rats; details: in vivo

Compound: CCOC(=O)[C@]1(c2ccccc2)C=C[C@@H](N2CCN(c3ccccc3)CC2)CC1 (relative stereo) [4r-(4'-Phenyl-piperazino-1')-1c-phenyl-1t-cyclohexene-(2)]
- Analgesia ED 50 Phenyl-p-Quinone Writhing Test ([1]; po): > 50.0 mg/kg
- Reduction of Spontaneous Motility by % Photocage ([2]; 10 mg/kg): 34%
- Reduction of Spontaneous Motility by % Photocage ([2]; sc, 5 mg/kg): no effect
- Decrease in Body Temperature in ° C ([3]; 200 mg/kg): -1.7 °C
- LD50 at 48 h (in vivo; po): ~1600 mg/kg

Compound: CCOC(=O)[C@]1(c2ccccc2)C=C[C@@H](N2CCC(c3ccccc3)CC2)CC1 (relative stereo) [4r-(4'-Phenyl-piperidino-1')-1c-phenyl-1t-ethoxycarbonyl-cyclohexene-(2)]
- Analgesia ED 50 Phenyl-p-Quinone Writhing Test ([1]; po): ca. 75.0 mg/kg
- Reduction of Spontaneous Motility by % Photocage ([2]; 100 mg/kg): 79%
- Decrease in Body Temperature in ° C [3]: no effect
- Aggressive Mouse ED 50 [4]: no effect
- LD50 at 48 h (in vivo; po): 850 mg/kg

Compound: CCOC(=O)[C@]1(c2ccccc2)C=C[C@@H](N2CCCCC2)CC1 (relative stereo) [4r-(Piperidino-1')-1c-phenyl-1t-ethoxycarbonyl-cyclohexene-(2)]
- Analgesia ED 50 Phenyl-p-Quinone Writhing Test ([1]; sc): > 20.0 mg/kg
- Reduction of Spontaneous Motility by % Photocage ([2]; sc, 40 mg/kg): 11%
- Decrease in Body Temperature in ° C ([3]; sc, 50 mg/kg): -0.1 °C
- Aggressive Mouse ED 50 ([4]; sc): no effect
- LD50 at 48 h (in vivo; sc): 390 mg/kg

Compound: CCOC(=O)[C@]1(c2ccccc2)C=C[C@@H](N(C)C)CC1 (relative stereo) [4r-Dimethyl-amino-1c-phenyl-1t-ethoxycarbonyl-cyclohexene-(2)]
- Analgesia ED 50 Phenyl-p-Quinone Writhing Test ([1]; po): 118.0 mg/kg
- Analgesia ED 50 Phenyl-p-Quinone Writhing Test ([1]; sc): 14.6 mg/kg
- Reduction of Spontaneous Motility by % Photocage ([2]; sc, 5 mg/kg): 0%
- Reduction of Spontaneous Motility by % Photocage ([2]; sc, 20 mg/kg): 25%
- Decrease in Body Temperature in ° C ([3]; sc): no effect
- Aggressive Mouse ED 50 ([4]; sc): no effect
- LD50 at 48 h (in vivo; po): 490 mg/kg
- LD50 at 48 h (in vivo; sc): 136 mg/kg

Compound: CCOC(=O)[C@]1(c2ccccc2)C=C[C@@H](N2CCN(c3ccccc3OC)CC2)CC1 (relative stereo) [4r-[4'-(2-Methoxy-phenyl)piperazino-1']-1c-phenyl-1t-ethoxycarbonyl-cyclohexene-(2)]
- Analgesia ED 50 Phenyl-p-Quinone Writhing Test ([1]; po): > 150.00 mg/kg
- Reduction of Spontaneous Motility by % Photocage ([2]; 50 mg/kg): 17%
- LD50 at 48 h (in vivo; po): > 1600 mg/kg

Compound: CCOC(=O)[C@]1(c2ccccc2)C=C[C@H](N(C)C)CC1 (relative stereo) [Example 1, 4r-Dimethylamino-1t-phenyl-1c-ethoxycarbonyl-cyclohexene-(2)]
- Analgesic potency/activity (in words) [1]: more potent analgesics than (±)-3r-dimethylamino-4c-phenyl-4t-ethoxycarbonyl-cyclohexene-(1) (Valoron ^R), a positional isomer of the former and Dolantin ^R
- Analgesia ED 50 Phenyl-p-Quinone Writhing Test ([1]; po): 13.6 mg/kg
- Analgesia ED 50 Phenyl-p-Quinone Writhing Test ([1]; sc): 3.0 mg/kg
- Reduction of Spontaneous Motility by % Photocage ([2]; sc, 5 mg/kg): 38%
- Reduction of Spontaneous Motility by % Photocage ([2]; sc, 10 mg/kg): 82%
- Decrease in Body Temperature in ° C ([3]; sc, 20 mg/kg): -1.4 °C
- Aggressive Mouse ED 50 ([4]; sc, 30 min): 4.0 mg/kg
- LD50 at 48 h (in vivo; po): 297 mg/kg
- LD50 at 48 h (in vivo; sc): 155 mg/kg

Compound: CCOC(=O)[C@]1(c2ccccc2)C=C[C@H](N2CCCCC2)CC1 (relative stereo) [Example 2, 4r-(Piperidino-1')-1t-phenyl-1c-ethoxycarbonyl-cyclohexene-(2)]
- Analgesia ED 50 Phenyl-p-Quinone Writhing Test ([1]; sc): 5.3 mg/kg
- Reduction of Spontaneous Motility by % Photocage ([2]; sc, 10 mg/kg): 93%
- Decrease in Body Temperature in ° C ([3]; sc, 25 mg/kg): -1.6 °C
- Aggressive Mouse ED 50 ([4]; sc, 30 min): 8.0 mg/kg
- LD50 at 48 h (in vivo; sc): 150 mg/kg

Compound: CCOC(=O)[C@]1(c2ccccc2)C=C[C@H](N2CCC(c3ccccc3)CC2)CC1 (relative stereo) [Example 3, 4r-(4'-Phenylpiperidino-1')-1t-phenyl-1c-ethoxycarbonylcyclohexene-(2)]
- Analgesia ED 50 Phenyl-p-Quinone Writhing Test ([1]; po): 10.0 mg/kg
- Reduction of Spontaneous Motility by % Photocage ([2]; 25 mg/kg): 91%
- Decrease in Body Temperature in ° C ([3]; 50 mg/kg): -0.5 °C
- Aggressive Mouse ED 50 ([4]; po, 30 min): 30 mg/kg
- LD50 at 48 h (in vivo; po): 800 mg/kg

Compound: CCOC(=O)[C@]1(c2ccccc2)C=C[C@H](N2CCN(c3ccccc3OC)CC2)CC1 (relative stereo) [Example 4, 4r-[4'-(2-Methoxyphenyl)piperazino-1']-1t-phenyl-1c-ethoxycarbonyl-cyclohexene-(2)]
- Analgesia ED 50 Phenyl-p-Quinone Writhing Test ([1]; po): 50.0 mg/kg
- Reduction of Spontaneous Motility by % Photocage ([2]; 50 mg/kg): 86%
- LD50 at 48 h (in vivo; po): ~2000 mg/kg

Compound: CCOC(=O)[C@]1(c2ccccc2)C=C[C@H](N2CCN(c3ccccc3)CC2)CC1 (relative stereo) [Example 5, 4r-(4'-Phenylpiperazino-1')-1t-phenyl-1c-ethoxycarbonylcyclohexene-(2)]
- Analgesia ED 50 Phenyl-p-Quinone Writhing Test ([1]; po): 25.0 mg/kg
- Reduction of Spontaneous Motility by % Photocage ([2]; 10 mg/kg): 59%
- Reduction of Spontaneous Motility by % Photocage ([2]; 50 mg/kg): 94%
- Reduction of Spontaneous Motility by % Photocage ([2]; sc, 5 mg/kg): 71%
- Decrease in Body Temperature in ° C ([3]; 100 mg/kg): -2.6 °C
- Aggressive Mouse ED 50 ([4]; po, 30 min): 25 mg/kg
- LD50 at 48 h (in vivo; po): 1600 mg/kg

Compound: CCOC(=O)C1(c2ccccc2)CCN(C)CC1 [Dolantin, Ethyl 1-methyl 4-phenyl-piperidin-4-carboxylate]
- Analgesia ED 50 Phenyl-p-Quinone Writhing Test ([1]; po): 28.5 mg/kg
- Analgesia ED 50 Phenyl-p-Quinone Writhing Test ([1]; sc): 6.3 mg/kg
- Reduction of Spontaneous Motility by % Photocage [2]: no effect
- Reduction of Spontaneous Motility by % Photocage ([2]; sc, 15 mg/kg): 30%
- Decrease in Body Temperature in ° C [3]: no effect
- Decrease in Body Temperature in ° C ([3]; sc): no effect
- Aggressive Mouse ED 50 [4]: no effect
- Aggressive Mouse ED 50 ([4]; sc, 30 min): > 15 mg/kg
- Neuroleptic activity (in words) [5]: no significant neuroleptic activity
- LD50 at 48 h (in vivo; po): 252 mg/kg
- LD50 at 48 h (in vivo; sc): 154 mg/kg
